In PMC9303458 (Chemmedchem, 2022):
Read-outs that look alike come from different tables or passages of the source. One block for each molecule: values may come before it.

Legend:
[1] = Chemical stability in aqueous solution; type: physicochemical; settings: percent of parent remaining after 60 min at 37 °C; mean ± SD, n=3
[2] = Metabolic stability in porcine liver S9 fraction; type: in vitro ADME; settings: for Porcine liver S9 fraction Stability: percent of parent remaining after 30 min at 37 °C, mean ± SD, n=3
[3] = Metabolic stability in porcine blood plasma; type: in vitro ADME; settings: for Porcine blood plasma Stability: percent of parent remaining after 30 min at 37 °C, mean ± SD, n=3
[4] = Thermodynamic aqueous solubility; type: physicochemical; settings: PBS pH 7.4, shaken 20 h, 20 °C; mean ± SD
[5] = dogs, peroral application; cited from earlier work
[6] = rats, peroral application; cited from earlier work
Caco‐2 cell monolayer [7] = assay: Caco‐2 cell permeability
human recombinant MAGL = biological target: T1, human recombinant MAGL (Homo sapiens, UniProt Q99685); type: biochemical; settings: for MAGL inhibition at 10 μM: highest test concentration
T1 sequence (Q99685 1-303): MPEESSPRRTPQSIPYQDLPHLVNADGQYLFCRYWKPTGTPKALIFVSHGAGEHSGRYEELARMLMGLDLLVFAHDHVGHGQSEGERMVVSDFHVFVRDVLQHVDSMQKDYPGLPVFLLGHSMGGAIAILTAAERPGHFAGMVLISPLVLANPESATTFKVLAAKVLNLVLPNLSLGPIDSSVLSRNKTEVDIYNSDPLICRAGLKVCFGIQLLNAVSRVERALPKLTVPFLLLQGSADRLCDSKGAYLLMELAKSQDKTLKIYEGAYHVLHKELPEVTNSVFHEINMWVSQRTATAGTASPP

[8] = biological target: T2, fatty acid amide hydrolase (FAAH), rat brain homogenate (Rattus norvegicus, UniProt P97612); type: biochemical; settings: for FAAH inhibition at 10 μM: highest test concentration; for inhibition at 10 µM: read-out: FAAH inhibition at 10 μM, 10 μM, highest test concentration
T2 sequence (P97612 1-579): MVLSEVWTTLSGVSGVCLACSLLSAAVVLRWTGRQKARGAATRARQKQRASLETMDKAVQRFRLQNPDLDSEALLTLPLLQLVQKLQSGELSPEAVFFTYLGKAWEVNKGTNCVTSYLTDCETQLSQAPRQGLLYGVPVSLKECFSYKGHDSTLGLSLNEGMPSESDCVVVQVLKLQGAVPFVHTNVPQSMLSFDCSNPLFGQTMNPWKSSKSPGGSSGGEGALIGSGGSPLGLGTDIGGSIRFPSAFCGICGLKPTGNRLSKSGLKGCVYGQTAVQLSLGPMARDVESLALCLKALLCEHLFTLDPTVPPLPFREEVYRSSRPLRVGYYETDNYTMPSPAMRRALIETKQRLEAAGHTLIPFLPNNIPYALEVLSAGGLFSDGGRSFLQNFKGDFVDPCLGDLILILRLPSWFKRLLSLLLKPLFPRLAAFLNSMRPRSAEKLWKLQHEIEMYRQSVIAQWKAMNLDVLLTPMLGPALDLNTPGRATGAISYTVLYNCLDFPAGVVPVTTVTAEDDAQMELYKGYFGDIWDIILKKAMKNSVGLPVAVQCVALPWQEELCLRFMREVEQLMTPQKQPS

[9] = biological target: butyrylcholinesterase (BuChE) (Equus caballus, UniProt P81908); assay: Inhibition of BuChE, release of benzoic acid from benzoylcholine; type: biochemical, horse
Caco‐2 cell permeability = settings: human, Caco-2, pH 7.4
Caco‐2 cell monolayer [10] = settings: Caco‐2, comparable conditions; cited from earlier work

Sequence of butyrylcholinesterase (BuChE) (P81908 whole entry): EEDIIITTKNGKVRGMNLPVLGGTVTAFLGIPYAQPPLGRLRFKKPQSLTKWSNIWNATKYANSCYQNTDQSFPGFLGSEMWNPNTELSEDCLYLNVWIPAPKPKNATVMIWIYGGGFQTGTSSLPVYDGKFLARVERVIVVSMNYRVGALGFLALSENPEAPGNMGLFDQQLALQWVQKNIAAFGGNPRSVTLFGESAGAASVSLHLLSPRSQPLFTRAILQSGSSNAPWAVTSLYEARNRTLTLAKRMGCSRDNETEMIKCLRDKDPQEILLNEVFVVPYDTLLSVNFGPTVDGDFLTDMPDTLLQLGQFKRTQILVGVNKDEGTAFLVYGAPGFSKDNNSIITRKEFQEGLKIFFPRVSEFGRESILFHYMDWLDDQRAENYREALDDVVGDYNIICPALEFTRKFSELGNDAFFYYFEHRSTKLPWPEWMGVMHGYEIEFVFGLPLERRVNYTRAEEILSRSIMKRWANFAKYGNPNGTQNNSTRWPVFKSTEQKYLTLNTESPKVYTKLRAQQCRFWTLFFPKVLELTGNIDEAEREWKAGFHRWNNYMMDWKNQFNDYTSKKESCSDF

Compound: O=C(OC(C(F)(F)F)C(F)(F)F)N1CCN(Cc2ccc(C(F)(F)F)cc2N2CCCC2)CC1 [ABX‐1431, reference compound]
PBS‐buffer pH 7.4 Stability [1]: 90±5%
Porcine liver S9 fraction Stability [2]: 81±3%
Porcine blood plasma Stability [3]: 95±2%
Aqueous solubility pH 7.4 [4]: very low solubility
Bioavailability [5]: more than 60%
Bioavailability [6]: more than 60%
Permeability coefficient pH 7.4 (Caco‐2 cell monolayer [7]; Caco‐2, 10 μM apical, 2 h, 37 °C, mean ± SD, n=3, n.d.: no permeation detectable): could not be detected

Compound: O=C(NCCCCCn1ccc2ccc(F)cc21)Oc1ccccc1 [Compound 6, phenyl N‐[5‐(6‐fluoroindol‐1‐yl)pentyl]carbamate]
MAGL inhibition at 10 μM (human recombinant MAGL): no inhibition

Compound: O=C(NCCCCCn1ccc2ccc(F)cc21)OC(C(F)(F)F)C(F)(F)F [Compound 11, 1,1,1,3,3,3‐Hexafluoropropan‐2‐yl N‐[5‐(6‐fluoroindol‐1‐yl)pentyl]carbamate]
IC50 [8]: 740 nM
PBS‐buffer pH 7.4 Stability [1]: 95±4%
Porcine liver S9 fraction Stability [2]: 72±5%
Porcine blood plasma Stability [3]: 86±9%
IC50 [9]: 3500 nM

Compound: O=C(NCCCCCCn1ccc2ccc(F)cc21)OC(C(F)(F)F)C(F)(F)F [Compound 13, 1,1,1,3,3,3‐Hexafluoropropan‐2‐yl N‐[6‐(6‐fluoroindol‐1‐yl)hexyl]carbamate]
IC50 [8]: 770 nM
PBS‐buffer pH 7.4 Stability [1]: 95±3%
Porcine liver S9 fraction Stability [2]: 69±5%
Porcine blood plasma Stability [3]: 79±8%
IC50 [9]: 1800 nM

Compound: O=C(NCCCCCCCn1ccc2ccc(F)cc21)OC(C(F)(F)F)C(F)(F)F [Compound 15]
IC50 [8]: 1000 nM

Compound: O=C(OC(C(F)(F)F)C(F)(F)F)N1CCC(Cn2ccc3ccc(F)cc32)CC1 [Compound 20, 1,1,1,3,3,3‐Hexafluoropropan‐2‐yl 4‐[(6‐fluoroindol‐1‐yl)methyl]piperidine‐1‐carboxylate]
FAAH inhibition at 10 μM [8]: no inhibitory activity
PBS‐buffer pH 7.4 Stability [1]: > 95%
Porcine liver S9 fraction Stability [2]: 75±3%
Porcine blood plasma Stability [3]: 82±6%

Compound: O=C(OC(C(F)(F)F)C(F)(F)F)N1CCC(CCn2ccc3ccc(F)cc32)CC1 [Compound 24, 1,1,1,3,3,3‐Hexafluoropropan‐2‐yl 4‐[2‐(6‐fluoroindol‐1‐yl)ethyl]piperidine‐1‐carboxylate]
IC50 [8]: 1000 nM
PBS‐buffer pH 7.4 Stability [1]: 93±1%
Porcine liver S9 fraction Stability [2]: 68±7%
Porcine blood plasma Stability [3]: 86±7%

Compound: O=C(OC(C(F)(F)F)C(F)(F)F)N1CCC(CCCn2ccc3ccc(F)cc32)CC1 [Compound 28]
IC50 [8]: 6300 nM

Compound: O=C(OC(C(F)(F)F)C(F)(F)F)N1CCC(CCCCn2ccc3ccc(F)cc32)CC1 [Compound 32]
IC50 [8]: 2800 nM

Compound: CN(CCCCCn1ccc2ccc(F)cc21)C(=O)OC(C(F)(F)F)C(F)(F)F [Compound 35, 1,1,1,3,3,3‐Hexafluoropropan‐2‐yl N‐methyl‐N‐[5‐(6‐fluoroindol‐1‐yl)pentyl]carbamate]
inhibition at 10 µM [8]: ~30%
inhibition at 10 µM (human recombinant MAGL; read-out: MAGL inhibition at 10 μM): ~30%

Compound: CCN(CCCCCn1ccc2ccc(F)cc21)C(=O)OC(C(F)(F)F)C(F)(F)F [Compound 38, 1,1,1,3,3,3‐Hexafluoropropan‐2‐yl N‐ethyl‐N‐[5‐(6‐fluoroindol‐1‐yl)pentyl]carbamate]
FAAH inhibition at 10 μM [8]: inactive
MAGL inhibition at 10 μM (human recombinant MAGL): inactive

Compound: CC(C)N(CCCCCn1ccc2ccc(F)cc21)C(=O)OC(C(F)(F)F)C(F)(F)F [Compound 40]
FAAH inhibition at 10 μM [8]: inactive
MAGL inhibition at 10 μM (human recombinant MAGL): inactive

Compound: O=C(OC(C(F)(F)F)C(F)(F)F)N(CCCCCn1ccc2ccc(F)cc21)C1CC1 [Compound 42]
FAAH inhibition at 10 μM [8]: inactive
MAGL inhibition at 10 μM (human recombinant MAGL): inactive

Compound: O=C(OC(C(F)(F)F)C(F)(F)F)N1CCC(Cn2ccc3ccccc32)CC1 [Compound 45]
FAAH inhibition at 10 μM [8]: no inhibitory activity

Compound: O=C(OC(C(F)(F)F)C(F)(F)F)N1CCC(Cn2ccc3c(F)cccc32)CC1 [Compound 48]
FAAH inhibition at 10 μM [8]: no inhibitory activity

Compound: O=C(OC(C(F)(F)F)C(F)(F)F)N1CCC(Cn2ccc3cccc(F)c32)CC1 [Compound 54]
FAAH inhibition at 10 μM [8]: no inhibitory activity

Compound: Cc1ccc2c(ccn2CC2CCN(C(=O)OC(C(F)(F)F)C(F)(F)F)CC2)c1 [Compound 57]
IC50 [8]: > 10000 nM
inhibition at 10 µM [8]: ~25%

Compound: COc1ccc2c(ccn2CC2CCN(C(=O)OC(C(F)(F)F)C(F)(F)F)CC2)c1 [Compound 60]
IC50 [8]: > 10000 nM
inhibition at 10 µM [8]: ~25%

Compound: N#Cc1ccc2c(ccn2CC2CCN(C(=O)OC(C(F)(F)F)C(F)(F)F)CC2)c1 [Compound 63]
IC50 [8]: > 10000 nM
inhibition at 10 µM [8]: ~25%

Compound: O=C(OC(C(F)(F)F)C(F)(F)F)N1CCC(CCn2cnc3ccccc32)CC1 [Compound 101, 1,1,1,3,3,3‐Hexafluoropropan‐2‐yl 4‐[2‐(benzimidazol‐1‐yl)ethyl]piperidine‐1‐carboxylate]
IC50 [8]: 1000 nM
PBS‐buffer pH 7.4 Stability [1]: > 95%
Porcine liver S9 fraction Stability [2]: 82±7%
Porcine blood plasma Stability [3]: 93±5%
Aqueous solubility pH 7.4 [4]: 6.1±0.5 μg/mL
Papp A→B at 2 h, 10 µM (Caco‐2 cell permeability): 12.6 ± 1 ×10⁻⁶ cm/s

Compound: O=C(OC(C(F)(F)F)C(F)(F)F)N1CCC(Cn2ccc3cccnc32)CC1 [Compound 125, 1,1,1,3,3,3‐Hexafluoropropan‐2‐yl 4‐[(7‐azaindol‐1‐yl)methyl]piperidine‐1‐carboxylate]
FAAH inhibition at 10 μM [8]: ineffective
PBS‐buffer pH 7.4 Stability [1]: 92±7%
Porcine liver S9 fraction Stability [2]: 75±8%
Porcine blood plasma Stability [3]: 79±6%
Papp A→B at 2 h, 10 µM (Caco‐2 cell permeability): 10 ×10⁻⁶ cm/s

Compound: NC(=O)c1cccc(-c2cccc(OC(=O)NC3CCCCC3)c2)c1 [URB597, reference compound]
PBS‐buffer pH 7.4 Stability [1]: > 95%
Porcine liver S9 fraction Stability [2]: 80±4%

Now from value to molecule, other results behind:

IC50 [8]: 2100 nM
Compound: O=C(OC(C(F)(F)F)C(F)(F)F)N1CCC(CCn2ccc3ccccc32)CC1 [Compound 66]

IC50 [8]: 2500 nM
Compound: O=C(OC(C(F)(F)F)C(F)(F)F)N1CCC(CCn2ccc3c(F)cccc32)CC1 [Compound 69]

IC50 [8]: 2800 nM
Compound: O=C(OC(C(F)(F)F)C(F)(F)F)N1CCC(CCn2ccc3cc(F)ccc32)CC1 [Compound 72]

IC50 [8]: 1200 nM
Compound: O=C(OC(C(F)(F)F)C(F)(F)F)N1CCC(CCn2ccc3cccc(F)c32)CC1 [Compound 75]

IC50 [8]: 7500 nM
Compound: O=C(OC(C(F)(F)F)C(F)(F)F)N1CCC(CCn2ccc3cc(Cl)ccc32)CC1 [Compound 78]

IC50 [8]: > 10000 nM
Compound: Cc1ccc2c(ccn2CCC2CCN(C(=O)OC(C(F)(F)F)C(F)(F)F)CC2)c1 [Compound 81]

IC50 [8]: 8300 nM
Compound: COc1ccc2c(ccn2CCC2CCN(C(=O)OC(C(F)(F)F)C(F)(F)F)CC2)c1 [Compound 84]

IC50 [8]: > 10000 nM
Compound: N#Cc1ccc2c(ccn2CCC2CCN(C(=O)OC(C(F)(F)F)C(F)(F)F)CC2)c1 [Compound 87]

IC50 [8]: 2600 nM
Decrease of activity towards FAAH relative to lead structure 24 (factor) ([8]; ratio of IC50 values): ~2.5
Decrease of activity towards MAGL relative to lead structure 24 (factor) (human recombinant MAGL; ratio of IC50 values): about 1.5
Compound: O=C(OC(C(F)(F)F)C(F)(F)F)N1CCN(CCn2ccc3ccc(F)cc32)CC1 [Compound 92, 1,1,1,3,3,3‐Hexafluoropropan‐2‐yl 4‐[2‐(6‐fluoroindol‐1‐yl)ethyl]piperazine‐1‐carboxylate]

IC50 [8]: > 10000 nM
Compound: O=C(OC(C(F)(F)F)C(F)(F)F)N1CCC(CCn2nnc3ccccc32)CC1 [Compound 104]

FAAH inhibition at 10 μM [8]: ineffective
Compound: O=C(OC(C(F)(F)F)C(F)(F)F)N1CCC(Cn2cnc3ccccc32)CC1 [Compound 122]

Recovery of test compound at the end of the Caco‐2 experiment (Caco‐2 cell monolayer [7]; sum of apical and basolateral compartments after 2 h): quantitative
Compound: COc1ccc2c(c1)c(CC(=O)O)c(C)n2C(=O)c1ccc(Cl)cc1 [indomethacin, reference compound]
Permeability coefficient, literature value (Caco‐2 cell monolayer [10]): 20.4 ×10⁻⁶ cm/s

Hydrolysis in porcine blood plasma ([3]; under the conditions of the stability assay): almost quantitatively hydrolyzed
Compound: CCCc1nc(C(C)(C)O)c(C(=O)OCc2oc(=O)oc2C)n1Cc1ccc(-c2ccccc2-c2nnn[nH]2)cc1 [olmesartan medoxomil, reference compound]

Degradation in porcine liver homogenate ([2]; percent degraded under the conditions of the stability assay): approximately 90%
Compound: CCOC(=O)C1=C[C@@H](OC(CC)CC)[C@H](NC(C)=O)[C@@H](N)C1 [oseltamivir, reference compound]
